Values of other authors as cited in US20200396993A1, “COMPOSITIONS AND METHODS FOR RELEASE OF CYCLOPROPENES” (Hazel Technologies, Inc., priority 2017, published 2020).
Values after ≈ are worked out from the molar mass of the structure shown.

Conditions: in water

Compound: CC1=CC1 [Sample 1-MCP, 1-methylcyclopropene]
- solubility: 137 µg/mL (≈ 2530 µM)
